This passage reports Efficacy and Ki results from ChEMBL document CHEMBL1149126, “3-phenyl-6-(2-pyridyl)methyloxy-1,2,4-triazolo[3,4-a]phthalazines and analogues: high-affinity gamma-aminobutyric acid-A benzodiazepine receptor ligands with alpha 2, alpha 3, and alpha 5-subtype binding selectivity over alpha 1” (J Med Chem, 2004).

The target in test [1] is GABA-A receptor; alpha-1/beta-3/gamma-2 (Homo sapiens) (UniProt P14867+P18507+P28472). The experiment in a line: Maximum percent change compared to GABA EC20 against GABA-A alpha-1-beta-3-gamma-2 receptor. The test is classed as functional.
Test [2] has as its target GABA-A receptor; alpha-3/beta-3/gamma-2 (Homo sapiens) (UniProt P18507+P28472+P34903). As to the kind of experiment: Maximum percent change compared to GABA EC20 against GABA-A alpha-3-beta-3-gamma-2 receptor. The format is functional.
For test [3], the target named is T1, GABA-A receptor; alpha-1/beta-3/gamma-2 (Homo sapiens, UniProt P14867+P18507+P28472).
T1 sequence (P14867 whole entry): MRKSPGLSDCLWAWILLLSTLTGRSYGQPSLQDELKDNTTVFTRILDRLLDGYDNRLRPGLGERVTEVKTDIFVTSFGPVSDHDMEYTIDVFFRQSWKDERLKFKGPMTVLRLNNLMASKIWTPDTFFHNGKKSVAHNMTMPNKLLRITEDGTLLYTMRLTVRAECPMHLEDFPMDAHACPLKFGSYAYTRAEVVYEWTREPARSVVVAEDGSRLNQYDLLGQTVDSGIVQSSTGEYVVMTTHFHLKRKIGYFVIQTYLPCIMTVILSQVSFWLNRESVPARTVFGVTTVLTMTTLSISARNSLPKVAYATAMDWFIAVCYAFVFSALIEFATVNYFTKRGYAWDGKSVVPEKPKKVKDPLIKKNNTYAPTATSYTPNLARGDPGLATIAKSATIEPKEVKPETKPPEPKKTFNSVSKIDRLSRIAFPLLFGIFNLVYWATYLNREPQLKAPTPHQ
T1 sequence (P18507 whole entry): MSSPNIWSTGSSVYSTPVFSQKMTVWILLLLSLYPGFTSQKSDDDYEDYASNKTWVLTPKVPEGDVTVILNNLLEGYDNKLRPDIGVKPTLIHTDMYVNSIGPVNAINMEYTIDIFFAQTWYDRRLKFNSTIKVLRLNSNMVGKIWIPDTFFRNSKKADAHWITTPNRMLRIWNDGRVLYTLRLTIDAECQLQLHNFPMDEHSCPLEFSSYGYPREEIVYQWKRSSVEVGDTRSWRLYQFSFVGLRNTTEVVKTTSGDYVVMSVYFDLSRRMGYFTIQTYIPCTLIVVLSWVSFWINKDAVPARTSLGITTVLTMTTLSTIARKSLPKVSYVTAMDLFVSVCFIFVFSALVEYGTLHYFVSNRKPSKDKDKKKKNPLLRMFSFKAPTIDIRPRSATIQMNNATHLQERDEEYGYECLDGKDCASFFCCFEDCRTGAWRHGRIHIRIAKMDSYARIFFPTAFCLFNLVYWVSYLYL
T1 sequence (P28472 whole entry): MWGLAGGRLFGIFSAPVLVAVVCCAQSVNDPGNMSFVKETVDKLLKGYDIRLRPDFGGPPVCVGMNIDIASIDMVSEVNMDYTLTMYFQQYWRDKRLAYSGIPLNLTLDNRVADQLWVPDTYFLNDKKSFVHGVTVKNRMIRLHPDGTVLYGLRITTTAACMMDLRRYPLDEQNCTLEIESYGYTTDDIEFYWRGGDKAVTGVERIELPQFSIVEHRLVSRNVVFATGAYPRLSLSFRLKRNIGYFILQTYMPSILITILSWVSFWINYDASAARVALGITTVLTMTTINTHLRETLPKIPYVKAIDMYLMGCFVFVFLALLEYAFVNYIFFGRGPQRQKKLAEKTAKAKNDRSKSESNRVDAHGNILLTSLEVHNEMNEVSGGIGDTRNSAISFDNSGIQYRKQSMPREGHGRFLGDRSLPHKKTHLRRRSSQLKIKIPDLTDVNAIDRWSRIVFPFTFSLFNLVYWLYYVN
The experiment in a line: Binding affinity for human GABA-A receptor alpha-1-beta-3-gamma-2 subunits in L(tk-) cells.

The target of test [4] is T2, GABA-A receptor; alpha-5/beta-3/gamma-2 (Homo sapiens, UniProt P18507+P28472+P31644).
T2 sequence (P18507 whole entry): T1 sequence (P18507 whole entry)
T2 sequence (P28472 whole entry): T1 sequence (P28472 whole entry)
T2 sequence (P31644 whole entry): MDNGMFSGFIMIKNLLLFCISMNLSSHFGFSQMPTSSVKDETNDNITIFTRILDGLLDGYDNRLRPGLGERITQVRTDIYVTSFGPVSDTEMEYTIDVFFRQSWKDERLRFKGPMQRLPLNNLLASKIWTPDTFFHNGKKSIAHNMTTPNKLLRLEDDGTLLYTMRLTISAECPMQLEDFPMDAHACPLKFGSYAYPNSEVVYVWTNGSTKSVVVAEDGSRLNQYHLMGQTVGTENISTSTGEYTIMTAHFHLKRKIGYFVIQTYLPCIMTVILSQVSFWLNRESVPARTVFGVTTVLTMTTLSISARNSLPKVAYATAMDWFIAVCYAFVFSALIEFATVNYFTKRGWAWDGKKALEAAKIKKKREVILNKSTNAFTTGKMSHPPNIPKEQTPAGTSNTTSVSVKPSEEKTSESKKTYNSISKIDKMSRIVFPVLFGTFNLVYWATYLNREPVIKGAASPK
The experiment in a line: Binding affinity for human GABA-A receptor alpha-5-beta-3-gamma-2 subunits in L(tk-) cells. The format is cell-based.

The target of test [5] is T3, GABA-A receptor; alpha-3/beta-3/gamma-2 (Homo sapiens, UniProt P18507+P28472+P34903).
T3 sequence (P18507 whole entry): T1 sequence (P18507 whole entry)
T3 sequence (P28472 whole entry): T1 sequence (P28472 whole entry)
T3 sequence (P34903 whole entry): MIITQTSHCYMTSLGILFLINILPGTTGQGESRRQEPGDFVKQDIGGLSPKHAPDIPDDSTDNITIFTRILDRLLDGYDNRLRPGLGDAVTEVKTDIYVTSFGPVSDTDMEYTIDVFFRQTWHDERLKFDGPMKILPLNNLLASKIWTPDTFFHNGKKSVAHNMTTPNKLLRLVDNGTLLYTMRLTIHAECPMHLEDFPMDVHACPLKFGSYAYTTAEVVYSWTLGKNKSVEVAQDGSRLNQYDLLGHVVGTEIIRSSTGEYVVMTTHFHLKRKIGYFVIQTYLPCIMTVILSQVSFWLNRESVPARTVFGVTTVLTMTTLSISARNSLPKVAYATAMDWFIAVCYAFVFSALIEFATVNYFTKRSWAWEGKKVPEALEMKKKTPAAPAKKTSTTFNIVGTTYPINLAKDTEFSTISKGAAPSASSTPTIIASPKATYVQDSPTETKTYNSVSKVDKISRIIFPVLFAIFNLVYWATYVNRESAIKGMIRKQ
As to the kind of experiment: Binding affinity for human GABA-A receptor alpha-3-beta-3-gamma-2 subunits in L(tk-) cells. The test is classed as cell-based.

In test [6] the target is T4, GABA-A receptor; alpha-2/beta-3/gamma-2 (Homo sapiens, UniProt P18507+P28472+P47869).
T4 sequence (P18507 whole entry): T1 sequence (P18507 whole entry)
T4 sequence (P28472 whole entry): T1 sequence (P28472 whole entry)
T4 sequence (P47869 whole entry): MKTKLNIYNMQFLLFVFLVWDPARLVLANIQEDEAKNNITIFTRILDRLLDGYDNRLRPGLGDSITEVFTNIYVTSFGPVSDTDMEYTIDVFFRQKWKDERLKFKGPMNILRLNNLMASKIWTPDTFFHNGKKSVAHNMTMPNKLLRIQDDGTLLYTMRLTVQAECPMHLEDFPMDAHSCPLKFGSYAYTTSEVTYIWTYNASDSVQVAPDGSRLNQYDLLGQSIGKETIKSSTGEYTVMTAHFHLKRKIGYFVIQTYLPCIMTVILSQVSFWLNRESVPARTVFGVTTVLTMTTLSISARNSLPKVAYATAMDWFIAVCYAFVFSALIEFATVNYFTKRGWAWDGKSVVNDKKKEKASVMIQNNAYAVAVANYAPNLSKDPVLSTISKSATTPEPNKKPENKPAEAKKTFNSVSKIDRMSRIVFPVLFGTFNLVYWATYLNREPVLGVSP
The experiment in a line: Binding affinity for human GABA-A receptor alpha-2-beta-3-gamma-2 subunits in L(tk-) cells. The test is classed as cell-based.

Broadly, the Ki is a dissociation constant, usually derived from enzyme kinetics or from competition with a known ligand. A high value points to a looser hold on the target.

`Cc1cccc2c(OCc3ccccn3)nn3c(-c4ccccc4)nnc3c12`: the Efficacy in test [1] was 0%; in test [2], 19%. Also, the inhibitory constant (Ki) in test [3] is 1.2 nM; in test [4], 0.84 nM; in test [5], 0.37 nM; in test [6], 1.8 nM.
As for `Cc1cccc2c1c(OCc1ccccn1)nn1c(-c3ccccc3)nnc21`, the Efficacy is 43% in test [1] and 39% in test [2]. For the same compound, the Ki in test [3] amounted to 56 nM; in test [4] it was 20 nM; in test [5], 35 nM; in test [6], 44 nM.
`Cc1ccc(COc2nn3c(-c4ccccc4)nnc3c3ccccc23)nc1`: the Ki in test [3] was found to be 4.8 nM; in test [4], 1.1 nM; in test [5], 4.3 nM; in test [6] it was 3.6 nM.
Turning to `CC(C)(C)c1nnc2c3ccccc3c(OCc3ccccn3)nn12`, the Ki in test [3], in test [4], in test [5] and in test [6] was above 1000 nM throughout.
Regarding `Clc1cccc(COc2nn3c(-c4ccccc4)nnc3c3ccccc23)c1`, the Ki in test [3], in test [4], in test [5] and in test [6] was above 1000 nM each time.
Regarding `Fc1ccc(-c2nnc3c4ccccc4c(OCc4ccccn4)nn23)cc1`, the Ki is 3.9 nM in test [3], 1.7 nM in test [4], 2.4 nM in test [5] and 3.7 nM in test [6].
For `c1ccc(-c2nnc3c4ccccc4c(OCc4cnccn4)nn23)cc1`, in that order: 2 nM, 0.36 nM, 0.71 nM and 1.6 nM.
With `Cc1ccc2c(c1)c(OCc1ccccn1)nn1c(-c3ccccc3)nnc21`, the Efficacy is 65% in test [1] and 27% in test [2]. Moreover, the Ki worked out at 2.2 nM in test [3], 0.64 nM in test [4], 1.2 nM in test [5] and 2.2 nM in test [6].
For `c1ccc(Oc2nn3c(-c4ccccc4)nnc3c3ccccc23)cc1`, the inhibition constant (Ki) in test [3], in test [4], in test [5] and in test [6] was above 1000 nM each time.
Turning to `CCOC(=O)c1ncn2c1[C@@H]1CCCN1C(=O)c1cc(OC)ccc1-2`, the Ki stood at 44 nM in test [3], 0.4 nM in test [4], 11 nM in test [5] and 22 nM in test [6].
For the compound `c1ccc(-c2nnc3c4ccccc4c(OCc4cccnc4)nn23)cc1`, the Ki in test [3] was 19 nM; in test [4], 31 nM; in test [5], 19 nM; in test [6], 16 nM.
As for `CCCc1nnc2c3ccccc3c(OCc3ccccn3)nn12`, the Ki in test [3] was 160 nM; in test [4] it was 19 nM; in test [5], 52 nM; in test [6], 120 nM.
For `COc1ccc(-c2nnc3c4ccccc4c(=O)n(Cc4ccccc4)n23)cc1` the same measures were above 1000 nM, above 1000 nM, above 1000 nM and above 1000 nM.
Regarding `Cc1ccc2c(OCc3ccccn3)nn3c(-c4ccccc4)nnc3c2c1`, the Ki in test [3], in test [4], in test [5] and in test [6] was above 1000 nM each time.
As to `c1ccc(CSc2nn3c(-c4ccccc4)nnc3c3ccccc23)cc1`, the Ki in test [3], in test [4], in test [5] and in test [6] was above 1000 nM each time.
With `Cn1ccnc1COc1nn2c(-c3ccccc3)nnc2c2ccccc12`, the Ki in test [3] came out at 0.51 nM; in test [4], 0.17 nM; in test [5], 0.22 nM; in test [6] it was 0.7 nM.
For `c1ccc(-c2nnc3c4ccccc4c(OCC4CCCCC4)nn23)cc1` the same measures were above 1000 nM, above 1000 nM, above 1000 nM and above 1000 nM.
For `CN(C)Cc1nnc2c3ccccc3c(OCc3ccccn3)nn12` the same measures were 140 nM, 160 nM, 840 nM and 620 nM.
Take `COc1cccc(COc2nn3c(-c4ccccc4)nnc3c3ccccc23)c1`: the Ki in test [3] was 800 nM; in test [4], 150 nM; in test [5], 66 nM; in test [6], 170 nM.
For `c1ccc(-c2nnc3c4ccccc4c(OCc4ccoc4)nn23)cc1`, in that order: 26 nM, 13 nM, 21 nM and 38 nM.
Consider `C=Cc1nnc2c3ccccc3c(OCc3ccccn3)nn12`, for which the Efficacy in test [2] is -31%. In addition, the Ki in test [3] was 49 nM; in test [4] it was 3.2 nM; in test [5], 11 nM; in test [6] it was 28 nM.
Regarding `CN(Cc1ccccc1)c1nn2c(-c3ccccc3)nnc2c2ccccc12`, the Ki in test [3] was 500 nM; in test [4], 240 nM; in test [5] it was above 1000 nM; in test [6] it was above 1000 nM.
Take `COc1ccccc1COc1nn2c(-c3ccccc3)nnc2c2ccccc12`: the Ki in test [3], in test [4], in test [5] and in test [6] was above 1000 nM each time.
